Source: patent publication US11149037B2, “Pyrazole MAGL inhibitors” (H. Lundbeck A/S, priority 2017, dated 2021)

Columns and labels:
MAGL [1] = biological target: MAGL (Homo sapiens (Human), UniProt Q99685); assay: In vitro competitive activity-based protein profiling, human proteomes (prefrontal cortex or PC3 cell membrane fractions); format: biochemical; details: human proteome; for inhibition at 1 µM: read-out: MAGL % inh. 1 μM (human)
Summary of the method: (§1)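 Activity of MAGL and FAAH was quantified from fluorescent gel band intensities. Beforehand, inhibitors at several concentrations competed against subsequent probe labelling (FP-Rh, JW912 or HT-01) in species-matched proteomes, each step 30 min at 37° C.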

FAAH [2] = biological target: FAAH (Homo sapiens (Human), UniProt O00519); assay: as above; format: biochemical; details: human proteome; for inhibition at 1 µM: read-out: FAAH % inh. 1 μM (human)
Sequence of FAAH (Homo sapiens (Human), UniProt O00519) (O00519 whole entry): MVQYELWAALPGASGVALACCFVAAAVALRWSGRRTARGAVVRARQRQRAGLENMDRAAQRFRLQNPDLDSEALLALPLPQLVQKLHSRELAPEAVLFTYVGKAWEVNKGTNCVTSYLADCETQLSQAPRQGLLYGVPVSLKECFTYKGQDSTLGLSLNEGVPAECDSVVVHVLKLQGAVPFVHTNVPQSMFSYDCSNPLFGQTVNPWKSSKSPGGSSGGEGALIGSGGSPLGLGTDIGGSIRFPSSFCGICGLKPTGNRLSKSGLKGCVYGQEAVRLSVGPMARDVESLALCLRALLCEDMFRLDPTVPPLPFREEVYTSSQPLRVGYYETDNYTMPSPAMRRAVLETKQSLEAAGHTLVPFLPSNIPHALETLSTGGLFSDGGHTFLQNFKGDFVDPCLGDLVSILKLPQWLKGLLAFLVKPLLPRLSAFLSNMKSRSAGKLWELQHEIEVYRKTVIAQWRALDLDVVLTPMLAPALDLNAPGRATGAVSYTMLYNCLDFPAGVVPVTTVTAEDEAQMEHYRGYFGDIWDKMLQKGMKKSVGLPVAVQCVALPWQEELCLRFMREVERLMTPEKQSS
Summary of the method: as §1

FAAH [3] = biological target: T1, FAAH (Mus musculus (Mouse), UniProt O08914); assay: Mouse brain proteomes from inhibitor treated mice (oral gavage, sacrificed 4 h after administration); format: in vivo; details: 5 mg/kg oral gavage
T1 sequence (O08914 whole entry): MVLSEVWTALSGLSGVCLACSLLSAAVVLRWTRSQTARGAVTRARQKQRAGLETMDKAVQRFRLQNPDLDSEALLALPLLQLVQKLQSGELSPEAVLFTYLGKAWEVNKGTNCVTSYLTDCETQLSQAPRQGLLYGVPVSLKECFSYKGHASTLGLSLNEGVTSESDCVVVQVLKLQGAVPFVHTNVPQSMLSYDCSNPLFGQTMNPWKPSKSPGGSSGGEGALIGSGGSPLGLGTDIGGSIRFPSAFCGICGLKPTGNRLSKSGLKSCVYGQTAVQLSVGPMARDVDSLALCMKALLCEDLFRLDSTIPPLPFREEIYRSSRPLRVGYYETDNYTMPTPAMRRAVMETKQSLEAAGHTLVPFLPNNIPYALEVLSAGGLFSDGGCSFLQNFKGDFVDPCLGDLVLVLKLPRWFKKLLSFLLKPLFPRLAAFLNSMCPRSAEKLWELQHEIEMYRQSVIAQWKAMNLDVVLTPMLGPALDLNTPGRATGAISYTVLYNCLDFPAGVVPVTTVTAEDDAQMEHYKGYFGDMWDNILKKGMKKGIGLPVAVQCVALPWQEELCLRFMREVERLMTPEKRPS
Experimental: (§2) Preparation of Mouse Brain Proteomes from Inhibitor Treated Mice.
(§3) Inhibitors were administered to wild-type C57B1/6J by oral gavage in a vehicle of polyethylene glycol. Each animal was sacrificed 4 h following administration and brain proteomes were prepared and analyzed according to previously established methods (See Niphakis, M. J., et al. (2011) ACS Chem. Neurosci. and Long, J. Z., et al. Nat. Chem. Biol. 5:37-44).

MAGL [4] = biological target: T2, MAGL (Mus musculus (Mouse), UniProt O35678); assay: as above; format: in vivo; details: 5 mg/kg oral gavage
T2 sequence (O35678 whole entry): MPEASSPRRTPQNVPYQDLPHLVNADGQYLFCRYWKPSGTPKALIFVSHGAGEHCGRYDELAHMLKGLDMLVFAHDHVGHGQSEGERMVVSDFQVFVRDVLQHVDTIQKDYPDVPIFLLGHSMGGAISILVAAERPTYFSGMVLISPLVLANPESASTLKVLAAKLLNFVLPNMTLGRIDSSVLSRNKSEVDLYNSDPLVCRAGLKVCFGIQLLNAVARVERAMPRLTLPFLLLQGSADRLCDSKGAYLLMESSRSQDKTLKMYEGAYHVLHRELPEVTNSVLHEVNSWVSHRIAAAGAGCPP
Experimental: as §2, §3

FAAH [5] = biological target: T1, FAAH; assay: In vitro competitive activity-based protein profiling, mouse proteomes (brain membrane fraction or cell lysates); format: biochemical; details: mouse proteome; for inhibition at 1 µM: read-out: FAAH % inh. 1 μM (mouse)
Summary of the method: as §1

MAGL [6] = biological target: T2, MAGL; assay: as above; format: biochemical; details: mouse proteome; for inhibition at 1 µM: read-out: MAGL % inh. 1 μM (mouse)
Summary of the method: as §1

Sequence of MAGL (Homo sapiens (Human), UniProt Q99685) (Q99685 whole entry): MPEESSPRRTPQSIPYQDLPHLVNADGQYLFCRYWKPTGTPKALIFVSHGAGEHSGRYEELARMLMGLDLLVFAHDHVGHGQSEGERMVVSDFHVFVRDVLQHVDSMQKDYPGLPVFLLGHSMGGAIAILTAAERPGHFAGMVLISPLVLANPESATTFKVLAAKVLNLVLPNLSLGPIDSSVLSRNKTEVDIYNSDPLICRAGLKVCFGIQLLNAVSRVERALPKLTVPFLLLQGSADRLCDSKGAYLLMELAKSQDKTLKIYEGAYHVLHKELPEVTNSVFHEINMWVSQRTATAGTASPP

inhibition at 1 µM (MAGL [1]; 1 μM) | IC50 (MAGL [1]) | inhibition at 1 µM (FAAH [2]; 1 μM) | IC50 (FAAH [2]) | inhibition at 1 µM (FAAH [5]) | inhibition at 1 µM (MAGL [6]) | SMILES | FAAH % inh. 5 mg/kg (mouse) (FAAH [3]) | MAGL % inh. 5 mg/kg (mouse) (MAGL [4]) | MAGL % inh. 1 μM (human) (MAGL [1]; 1 μM) | FAAH % inh. 1 μM (human) (FAAH [2]; 1 μM) | FAAH % inh. 1 μM (mouse) (FAAH [5]) | MAGL % inh. 1 μM (mouse) (MAGL [6])
> 75% | < 0.1 µM | 50 to 75% | 0.1 to 1 µM | > 75% | > 75% | CC(=O)Nc1ccn(C(=O)N2CCN(Cc3ccc(N4CC5COCC5C4)cc3C(F)(F)F)CC2)n1 (stereo not shown) [Example 22, N-(1-(4-(4-(tetrahydro-1H-furo[3,4-c]pyrrol-5(3H)-yl)-2-(trifluoromethyl)benzyl)piperazine-1-carbonyl)-1H-pyrazol-3-yl)acetamide] | C (% inhibition is greater than or equal to 25% and less than 50%) | C (% inhibition is greater than or equal to 25% and less than 50%) |  |  |  | 
> 75% |  | 0 to 25% |  | 0 to 25% | > 75% | CC(C)OC1CCN(c2cc(CN3CCN(C(=O)n4ccc(NS(C)(=O)=O)n4)C[C@@H]3C)ccc2Cl)CC1 [Example 32, (S)—N-(1-(4-(4-chloro-3-(4-isopropoxypiperidin-1-yl)benzyl)-3-methylpiperazine-1-carbonyl)-1H-pyrazol-3-yl)methanesulfonamide] | D (% inhibition is greater than or equal to 0% and less than 25%) | A (% inhibition is greater than or equal to 75%) |  |  |  | 
 | < 0.1 µM |  | 1 to 10 µM | 50 to 75% | > 75% | CC(=O)Nc1ccn(C(=O)N2CCC3(CCCN3Cc3cc4cc(Cl)ccc4s3)CC2)n1 [Example 39, N-(1-(1-((5-Chlorobenzo[b]thiophen-2-yl)methyl)-1,8-diazaspiro[4.5]decane-8-carbonyl)-1H-pyrazol-3-yl)acetamide] | D (% inhibition is greater than or equal to 0% and less than 25%) | A (% inhibition is greater than or equal to 75%) |  |  |  | 
> 75% |  | 0 to 25% |  | 0 to 25% | > 75% | CS(=O)(=O)Nc1ccn(C(=O)N2CCC3(CCN(Cc4ccc(C(F)(F)F)cc4N4CCCC4)C3)CC2)n1 [Example 58, N-(1-(2-(2-(Pyrrolidin-1-yl)-4-(trifluoromethyl)benzyl)-2,8-diazaspiro[4.5]decane-8-carbonyl)-1H-pyrazol-3-yl)methanesulfonamide] | D (% inhibition is greater than or equal to 0% and less than 25%) | A (% inhibition is greater than or equal to 75%) |  |  |  | 
> 75% | < 0.1 µM | 0 to 25% | 1 to 10 µM | 0 to 25% | > 75% | CS(=O)(=O)Nc1ccn(C(=O)N2CCC3(CCN(Cc4ccc(Cl)cc4N4CCCC4)C3)CC2)n1 [Example 63, N-(1-(2-(4-Chloro-2-(pyrrolidin-1-yl)benzyl)-2,8-diazaspiro[4.5]decane-8-carbonyl)-1H-pyrazol-3-yl)methanesulfonamide] | D (% inhibition is greater than or equal to 0% and less than 25%) | C (% inhibition is greater than or equal to 25% and less than 50%) |  |  |  | 
> 75% |  | 0 to 25% |  | 0 to 25% | > 75% | CS(=O)(=O)Nc1ccn(C(=O)N2CCN(Cc3ccc(C(F)(F)F)nc3N3CCCC3)CC2)n1 [Example 71, N-(1-(4-((2-(Pyrrolidin-1-yl)-6-(trifluoromethyl)pyridin-3-yl)methyl)piperazine-1-carbonyl)-1H-pyrazol-3-yl)methanesulfonamide] | D (% inhibition is greater than or equal to 0% and less than 25%) | A (% inhibition is greater than or equal to 75%) |  |  |  | 
> 75% |  | 0 to 25% |  | 0 to 25% | > 75% | CN(Cc1ccc(C(F)(F)F)cc1N1CCCC1)C1(C)CCN(C(=O)n2ccc(NS(C)(=O)=O)n2)CC1 [Example 75, N-(1-(4-Methyl-4-(methyl(2-(pyrrolidin-1-yl)-4-(trifluoromethyl)benzyl)amino)piperidine-1-carbonyl)-1H-pyrazol-3-yl)methanesulfonamide] | D (% inhibition is greater than or equal to 0% and less than 25%) | A (% inhibition is greater than or equal to 75%) |  |  |  | 
> 75% |  | 0 to 25% |  | 0 to 25% | > 75% | CC(=O)Nc1ccn(C(=O)N2CCN(Cc3ccc(C(F)(F)F)cc3NCCCC(=O)O)CC2)n1 [Example 76, 4-((2-((4-(3-Acetamido-1H-pyrazole-1-carbonyl)piperazin-1-yl)methyl)-5-(trifluoromethyl)phenyl)amino)butanoic acid] | D (% inhibition is greater than or equal to 0% and less than 25%) | D (% inhibition is greater than or equal to 0% and less than 25%) |  |  |  | 
> 75% |  | 0 to 25% |  | 0 to 25% | > 75% | CC(=O)Nc1ccn(C(=O)N2CCC3(CCCN3Cc3ccc(C(F)(F)F)cc3NCCCC(=O)O)CC2)n1 [Example 79, 4-((2-((8-(3-Acetamido-1H-pyrazole-1-carbonyl)-1,8-diazaspiro[4.5]decan-1-yl)methyl)-5-(trifluoromethyl)phenyl)amino)butanoic acid] | D (% inhibition is greater than or equal to 0% and less than 25%) | D (% inhibition is greater than or equal to 0% and less than 25%) |  |  |  | 
> 75% |  | 0 to 25% |  | 0 to 25% | > 75% | CS(=O)(=O)Nc1ccn(C(=O)N2CCC(Oc3ccc(C(F)(F)F)cc3N3CCCC3)CC2)n1 [Example 80, N-(1-(4-(2-(Pyrrolidin-1-yl)-4-(trifluoromethyl)phenoxy)piperidine-1-carbonyl)-1H-pyrazol-3-yl)methanesulfonamide] | D (% inhibition is greater than or equal to 0% and less than 25%) | A (% inhibition is greater than or equal to 75%) |  |  |  | 
> 75% |  | 0 to 25% |  | 0 to 25% | > 75% | CC(=O)Nc1ccn(C(=O)N2CCC3(CCCN3C(=O)c3ccc(C#N)c(C4CC4)c3)CC2)n1 [Example 87, N-(1-(1-(4-Cyano-3-cyclopropylbenzoyl)-1,8-diazaspiro[4.5]decane-8-carbonyl)-1H-pyrazol-3-yl)acetamide] | D (% inhibition is greater than or equal to 0% and less than 25%) | D (% inhibition is greater than or equal to 0% and less than 25%) |  |  |  | 
> 75% |  | 0 to 25% |  | 0 to 25% | > 75% | CS(=O)(=O)Nc1ccn(C(=O)N2CCN(Cc3ccc(Cl)nc3N3CCCC3)CC2)n1 [Example 90, N-(1-(4-((6-Chloro-2-(pyrrolidin-1-yl)pyridin-3-yl)methyl)piperazine-1-carbonyl)-1H-pyrazol-3-yl)methanesulfonamide] | D (% inhibition is greater than or equal to 0% and less than 25%) | C (% inhibition is greater than or equal to 25% and less than 50%) |  |  |  | 
 |  |  |  |  |  | CS(=O)(=O)Nc1ccn(C(=O)N2C[C@H]3C[C@@H](N(CC(=O)O)Cc4cc(Cl)ccc4C(F)(F)F)C[C@H]3C2)n1 [Example 93, N-(5-Chloro-2-(trifluoromethyl)benzyl)-N-((3aR,5r,6aS)-2-(3-(methylsulfonamido)-1H-pyrazole-1-carbonyl)octahydrocyclopenta[c]pyrrol-5-yl)glycine] | D (% inhibition is greater than or equal to 0% and less than 25%) | D (% inhibition is greater than or equal to 0% and less than 25%) | A (% inhibition is greater than or equal to 75%) | D (% inhibition is greater than or equal to 0% and less than 25%) | D (% inhibition is greater than or equal to 0% and less than 25%) | A (% inhibition is greater than or equal to 75%)
> 75% |  | 0 to 25% |  | 0 to 25% | > 75% | CN(Cc1ccc(C(F)(F)F)cc1N1CCOCC1)C1(C)CCN(C(=O)n2ccc(NS(C)(=O)=O)n2)CC1 [Example 94, N-(1-(4-Methyl-4-(methyl(2-morpholino-4-(trifluoromethyl)benzyl)amino)piperidine-1-carbonyl)-1H-pyrazol-3-yl)methanesulfonamide] | D (% inhibition is greater than or equal to 0% and less than 25%) | A (% inhibition is greater than or equal to 75%) |  |  |  | 
